These results are taken from PubChem BioAssay (NCI).

Common to all, as to experiment: NCI tumour cell line growth inhibition, 48 h
In test [1] the test system is M19-MEL melanoma.
Test [2] relates to SNB-78 CNS.
The subject of test [3] is HOP-18 NSCLC.
In test [4] the test system is KM20L2 colon.
Test [5] deals with DLD-1 colon.
Test [6] relates to DMS 273 small cell lung.
Test [7] deals with DMS 114 small cell lung.
The test system of test [8] is SN12K1 renal.
Test [9] concerns P388 leukemia.
In test [10] the test system is RXF-631 renal.
For test [11], the system named is P388/ADR leukemia.

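Dose response: 5 concentrations. Exposure: 48 h. Format: 96-well plates. Endpoint: linear interpolation; highest concentration if not reached. The concentration for full growth arrest is given as TGI.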

As for `O=C(c1ccc(Cl)cc1)N(C(=S)N1CCN(c2ccccn2)CC1)C1CCCCC1`, the TGI in test [1], in test [2], in test [3], in test [4], in [5] and in test [6] was over 100 µM throughout. Further, in test [7], the TGI was over 100 µM.

On to `NC1=NS(=O)(=O)Nc2nc(-c3ccccc3)[nH]c21`, for which the TGI in test [1], in test [2], in [3], in test [4], in [5] and in [6] was over 100 µM throughout. Also, in test [7], the TGI was over 100 µM.

Turning to `C=C(NC(=O)C(=C)NC(=O)c1csc(C2=NC3c4csc(n4)C4NC(=O)c5csc(n5)C(C(C)(O)C(C)O)NC(=O)C5CSC(=N5)/C(=C/C)NC(=O)C(C(C)O)NC(=O)c5csc(n5)C3(CC2)NC(=O)C(C)NC(=O)C(=C)NC(=O)C(C)NC(=O)C(C(C)CC)NC2C=Cc3c(C(C)O)cc(nc3C2O)C(=O)OC4C)n1)C(N)=O` (centres undefined), the TGI in test [1] is 3.05 µM; in [2], over 100 µM; in test [8], 2.57 µM; in test [3] it was 16.8 µM; in test [4], 10.7 µM; in test [5] it was 4.44 µM. The TGI was 2.8 µM in test [6], 0.19 µM in test [9], 18 µM in test [10] and 7.69 µM in [7].

`COc1ccc([C@@H]2CC(=O)N2)cc1`: the TGI in test [2], in test [3], in test [4], in [5], in test [6] and in test [7] was over 100 µM throughout.

For the compound `O=C(O)c1ccc(C2=Cc3cc(Cl)ccc3OC2)cc1`, the TGI in [1], in test [2], in [3], in test [4], in test [5] and in test [6] was over 100 µM in each case. The compound further registered a TGI in test [7] of over 100 µM.

Regarding `C=C1C(=O)O[C@@H]2[C@H](O)[C@@H](C)[C@@H]3C=CC(=O)[C@@]3(C)[C@@H](OC(=O)/C(C)=C/C)[C@H]12`, the TGI in [1] is 1.22 µM; in test [2], 8.03 µM; in test [8], 0.688 µM; in test [3], 4.75 µM; in test [4] it was 5.54 µM; in [5], 1.31 µM. The TGI in [6] is 3.56 µM; in [9], 2.74 µM; in test [11], 1.08 µM; in [7], 3.63 µM.

Take `O=[N+]([O-])C(/C=N/Nc1ccccc1)/C=N/Nc1ccccc1`: the TGI in test [1], in [2], in test [3], in test [4], in test [5] and in [6] was over 100 µM throughout. The TGI in test [7] was over 100 µM.

`COc1c2c(c3ccccc3c1O)C1C=CC2C1` (centres undefined): the TGI in test [1] was 5.46 µM; in [3], 28.5 µM; in test [4], 45.7 µM; in [5] it was 31.6 µM; in test [6], 30.3 µM; in test [7], 19.6 µM.

With `O=C(c1ccccc1)C1S(=O)(=O)OCCOS1(=O)=O`, the TGI in [1], in test [2], in [5], in [6], in test [10] and in test [7] was over 100 µM each time.

On to `O=C1/C=C(/c2ccc(O)cc2)[C@@H](O)Cc2ccc(O)cc2O1`, for which the TGI in test [1], in test [2], in test [4], in test [5], in test [10] and in test [7] was over 100 µM in each case.

Take `CCOC(=O)C(Cc1c[nH]c2cc([N+](=O)[O-])ccc12)NS(=O)(=O)c1ccc2ccccc2c1` (centres undefined): the TGI in [1] was 30.9 µM; in test [2], 47.7 µM; in test [3], over 100 µM; in [4], 33.9 µM; in test [5], 65.7 µM; in [6], 32.1 µM. For the same compound, the TGI in [7] amounted to 38.3 µM.
